Data taken from ChEMBL document CHEMBL3045788, “Effect of abamectin on root-knot nematodes and tomato yield” (Pest Manag Sci, 2012).
Active and inactive are the calls of the source. No cut-off for these calls is given here.

Key:
[1] = tested on: Meloidogyne incognita; assay: Nematicidal activity against second-stage juvenile Meloidogyne incognita (root-knot nematode) assessed as mortality after 48 hr; format: functional
[2] = tested on: Meloidogyne incognita; assay: Nematicidal activity against second-stage juvenile Meloidogyne incognita (root-knot nematode) infested tomato plant under greenhouse condition assessed as reduction in root galling index at 8 kg/hectare measured after 30 days; format: functional, organism-based
[3] = tested on: Meloidogyne incognita; assay: Nematicidal activity against second-stage juvenile Meloidogyne incognita (root-knot nematode) infested tomato plant under greenhouse condition assessed as plant vigour at 8 kg/hectare measured after 30 days; format: functional
[4] = tested on: Meloidogyne incognita; assay: Nematicidal activity against second-stage juvenile Meloidogyne incognita (root-knot nematode) infested tomato plant under greenhouse condition assessed as plant height at 8 kg/hectare measured after 30 days; format: functional
[5] = tested on: Meloidogyne incognita; assay: Nematicidal activity against second-stage juvenile Meloidogyne incognita (root-knot nematode) infested tomato field assessed as plant height at 8 kg/hectare measured after 50 days; format: functional
[6] = tested on: Meloidogyne incognita; assay: Nematicidal activity against second-stage juvenile Meloidogyne incognita (root-knot nematode) infested tomato field assessed as reduction in number of nematodes in soil at 8 kg/hectare measured after 60 days; format: functional, organism-based
[7] = tested on: Meloidogyne incognita; assay: Nematicidal activity against second-stage juvenile Meloidogyne incognita (root-knot nematode) infested tomato field assessed as reduction in number of nematodes in soil at 8 kg/hectare measured after 40 days; format: functional, organism-based
[8] = tested on: Meloidogyne incognita; assay: Nematicidal activity against second-stage juvenile Meloidogyne incognita (root-knot nematode) infested tomato field assessed as reduction in number of nematodes in soil at 8 kg/hectare measured after 20 days; format: functional, organism-based
[9] = tested on: Meloidogyne incognita; assay: Nematicidal activity against second-stage juvenile Meloidogyne incognita (root-knot nematode) infested tomato plant under greenhouse condition assessed as fresh root weight at 8 kg/hectare measured after 30 days; format: functional
[10] = tested on: Meloidogyne incognita; assay: Nematicidal activity against second-stage juvenile Meloidogyne incognita (root-knot nematode) infested tomato field assessed as plant vigour at 8 kg/hectare measured after 30 days; format: functional
[11] = tested on: Meloidogyne incognita; assay: Nematicidal activity against second-stage juvenile Meloidogyne incognita (root-knot nematode) infested tomato field assessed as large fruit yield at 8 kg/hectare; format: functional
[12] = tested on: Meloidogyne incognita; assay: Nematicidal activity against second-stage juvenile Meloidogyne incognita (root-knot nematode) infested tomato field assessed as extra-large fruit yield at 8 kg/hectare; format: functional
[13] = tested on: Meloidogyne incognita; assay: Nematicidal activity against second-stage juvenile Meloidogyne incognita (root-knot nematode) infested tomato field assessed as plant height at 8 kg/hectare measured after 30 days; format: functional
[14] = tested on: Meloidogyne incognita; assay: Nematicidal activity against second-stage juvenile Meloidogyne incognita (root-knot nematode) infested tomato field assessed as reduction in root galling index at 8 kg/hectare measured after 30 days; format: functional, organism-based
[15] = tested on: Meloidogyne incognita; assay: Nematicidal activity against second-stage juvenile Meloidogyne incognita (root-knot nematode) infested tomato field assessed as marketable yield at 8 kg/hectare; format: functional
[16] = tested on: Meloidogyne incognita; assay: Nematicidal activity against second-stage juvenile Meloidogyne incognita (root-knot nematode) infested tomato field assessed as medium fruit yield at 8 kg/hectare; format: functional

CCOP(=O)(SC(C)CC)SC(C)CC (configuration not stated) [CADUSAFOS]
LC50 [1]: 13.43 mgAi/L
LC90 [1]: 50.34 mgAi/L
Activity [2]: Active
Activity [3]: 91%
Activity [4]: 39.2 cm
Activity [5]: 101.8 cm
Activity [6]: Active
Activity [7]: Active
Activity [8]: Active
Activity [9]: 1.13 g
Activity [10]: 90%
Activity [11]: 19.9%
Activity [12]: 7.2%
Activity [13]: 38.6 cm
Activity [14]: Active
Activity [15]: 68.7%
Activity [16]: 41.6%
